Measurements as given in ChEMBL document CHEMBL1158275, “Isolation of two new antiinflammatory biflavanoids from Sarcophyte piriei” (J Nat Prod, 1996).

Key:
[1] = Inhibition of prostaglandin synthesis in bovine seminal vesicle microsomes using [14C]arachidonic acid; assay type: functional, Bos taurus, Microsome
[2] = tested on: Neutrophil; experiment: Inhibition of PAF-induced exocytosis in neutrophil by spectrophotometer; assay type: functional, cell-based

Row | Compound | IC50 [1] [µg/mL] | IC50 [2] [µM] | IC50 ([1]; read-out: IC50) [µM]
1 | CC(=O)Oc1ccccc1C(=O)O [ASPIRIN] | 200 |  | 
2 | O=C1C[C@H](c2ccc(O)c(O)c2)Oc2c1c(O)cc1c2[C@@H]2C[C@@](c3ccc(O)c(O)c3)(Oc3cc(O[C@@H]4O[C@H](CO)[C@@H](O)[C@H](O)[C@H]4O)cc(O)c32)O1 [DIINSININOL] |  | 49 | 9.2
3 | O=C1C[C@H](c2ccc(O)cc2)Oc2c1c(O)cc1c2[C@@H]2C[C@@](c3ccc(O)c(O)c3)(Oc3cc(O[C@@H]4O[C@H](CO)[C@@H](O)[C@H](O)[C@H]4O)cc(O)c32)O1 [DIINSININ] |  | 39 | 13.1
4 | C[C@@H]1C(=O)O[C@H]2[C@H](O)[C@@]34[C@H]5C[C@@H](C(C)(C)C)[C@]36[C@@H](OC(=O)[C@@H]6O)O[C@@]4(C(=O)O5)[C@@]12O [GINKOLIDE B] |  | 80 | 
5 | COc1ccc2c(c1)c(CC(=O)O)c(C)n2C(=O)c1ccc(Cl)cc1 [INDOMETHACIN] |  |  | 0.56
